Legend:
[1] = biological target: T1, mutant p53 in MDA-MB-231 breast cancer cells (Homo sapiens, UniProt P04637, R280K); test: Immunoblot of mutant p53 in MDA-MB-231 cells treated with ITCs; format: cell-based; conditions: for depletion of mutant p53 (FIG. 3B-E): H596 20 μM / MDA-MB-231 10 μM ITCs
T1 construct: host or cells: MDA-MB-231
Description: (§1) Human H596, A549, HCT116, MDA-MB-231, MDA-MB-468, MCF-7, DU145, MCF-10A, SW480, and SCC-4 cells were obtained from ATCC (Manassas, Va.). H1299-175H cells were kindly provided by Dr. Maria Laura Avantaggiati (Georgetown University). Cells were maintained in DMEM or RPMI-1640 medium supplemented with 10% FBS (Hyclone). […] 2,2-Diphenylethyl ITC, 4-phenoxybenzyl ITC, 4-methoxybenzyl ITC, 4-chlorobenzyl ITC, Dα-methylbenzyl ITC, trityl ITC, and 3-phenylpropyl ITC were purchased from Trans World Chemicals (Rockville, Md.). Erucin and 4-phenylbutyl ITC were from LKT Laboratories, Inc. (St. Paul, Minn.). […] The p53 DO-1 and β-actin antibodies were purchased from Santa Cruz Biotechnology (Santa Cruz, Calif.), horseradish peroxidase-labeled goat antimouse secondary antibodies were purchased from GE-Healthcare (Pittsburgh, Pa.), and Bio-Rad Protein Assay was from Bio-Rad (Hercules, Calif.).
(§2) Whole cell lysates were prepared in lysis buffer (20 mM HEPES, pH 7.4, 2 mM EGTA, 50 mM β-glycerol phosphate, 1% Triton X-100, 10% glycerol, 1 mM DTT, 1 mM PMSF, […], 1 mM Na3-VO4, and 5 mM NaF). For immunoblot analysis, equal amounts of protein were resolved on 4-12% NuPAGE BisTris gels (Invitrogen) and transferred to PVDF membranes (Millipore). The membranes were blocked with 5% milk in TBST and were then probed with p53 (DO-1) or β-actin antibody. Proteins were detected using enhanced chemiluminescence (ECL) reagents (GE Healthcare).

[2] = biological target: T2, mutant (G245C) p53 DNA-binding domain (Homo sapiens, UniProt P04637, G245C); test: Monochlorobimane fluorometric cysteine binding assay; conditions: 100 μM ITC, 1 h, 32 C; compared with trityl ITC, cyclohexylmethyl ITC, SFN, AITC, and PITC (p<0.05)
T2 construct: made in house; host or cells: Escherichia coli BL21
Experimental: BL21 […] Escherichia coli were transformed with pET29b wild-type or mutant (G245C) p53 DNA binding domain (DBD) plasmids. The E. coli were then cultured in LB media supplemented with 100 μM ZnCl2 and 25 μg/mL kanamycin at 37° C. until OD600=0.6-0.8. Protein expression was induced by 0.1 mM isopropyl β-D-1-thiogalactopyranoside for 16 h at 37 gC for wild-type and 16 gC for mutant p53. Bacterial pellets were then harvested by centrifugation at 5000×g, 10 min, 4 gC, and lysed via sonication in 50 mM Tris, 50 mM KCl, 5 mM dithiothreitol, 1 mM PMSF, pH 7 buffer. The soluble fraction was passed through a Capto S cation exchange column (GE Healthcare) and eluted with 50 mM Tris, 200 mM KCl, 5 mM DTT, pH 7. Eluted protein was dialyzed overnight against a non-salt dialysis buffer (50 mM Tris, 5 mM DTT, pH 7) and loaded onto a HiTrap Heparin HP column (GE Healthcare). The p53 DBD was purified via a AKTApurifier-10 protein liquid chromatography system (GE Healthcare) with an increasing KCl salt gradient, and purity was tested by SDSPAGE and Coomassie blue staining. Purified protein was dialyzed in PBS, and protein concentrations were determined prior to performing fluorescence experiments.
In a white 96-well plate, 100 μL of purified mutant (G245C) p53 DNA-binding domain protein in PBS was treated with DMSO, 100 μM ITCs in DMSO, or 500 μM iodoacetamide (positive binding control). An additional well containing 100 μL of PBS was used to determine background. Samples were incubated with compounds in the dark for 1 h at 32 gC, after which […] of 10 mM monochlorobimane was added (in the dark), and samples were further incubated in the dark at 32 gC for 30 min. Fluorescence readings were then obtained using a BIO-TEK Synergy HT plate reader (λex 380 nm; λem 485 nm).

[3] = tested on: MDA-MB-231 breast cancer cells; test: FITC-annexin V / propidium iodide apoptosis assay; format: cell-based, Human; conditions: MDA-MB-231, 10 μM, 24 h; for induction of apoptosis vs DMSO: p<0.05
Experimental: Then, 100 μL of each sample was added to a 5 mm tube, and the annexin V apoptosis kit protocol was followed. Samples were immediately analyzed with flow cytometry.

[4] = biological target: T3, mutant p53 protein in H596 (G245C) non-small-cell lung cancer cells (Homo sapiens, UniProt P04637, G245C); test: Immunoblot of mutant p53 protein in H596 cells; format: cell-based
T3 construct: host or cells: H596
Description: as §1, §2

## S=C=NCCCc1ccccc1 [3-PPITC, 3-phenylpropyl ITC]
[1]
  depletion of mutant p53 (FIG. 3B-E): deplete mutant p53
[2]
  binding affinity for mutant (G245C) p53 DBD (free thiols, relative fluorescence): greater binding affinities
[3]
  induction of apoptosis vs DMSO: greater induction of apoptosis

## S=C=NCc1ccccc1 [BITC, benzyl isothiocyanate]
[1]
  depletion of mutant p53 (FIG. 3B-E): deplete mutant p53
[1]; MDA-MB-231, 10 μM ITCs, 24 h, compared with DMSO control
  depletion of mutant p53 at equimolar concentrations: approximately the same extent
[4]; H596, 10 μM, 2 h
  level of mutant p53: significantly reduced
[4]; H596, 20 μM ITCs, 24 h, compared with DMSO control
  depletion of mutant p53 at equimolar concentrations: approximately the same extent
[2]
  binding affinity for mutant (G245C) p53 DBD (free thiols, relative fluorescence): greater binding affinities
[3]
  induction of apoptosis vs DMSO: greater induction of apoptosis

## CNCCc1ccccc1 [NMPEA, N-methylphenethylamine, reference compound]
[4]; H596, 15 μM, up to 24 h
  mutant p53 protein level: failed to alter
[4]; H596, 60 μM for 2 h
  mutant p53 protein level: failed to alter

## S=C=NCCCCc1ccccc1 [4-PBITC, 4-phenylbutyl ITC]
[1]
  depletion of mutant p53 (FIG. 3B-E): deplete mutant p53
[3]
  induction of apoptosis vs DMSO: greater induction of apoptosis

## COc1ccc(CN=C=S)cc1 [4-methoxybenzyl ITC]
[2]
  binding affinity for mutant (G245C) p53 DBD (free thiols, relative fluorescence): greater binding affinities

## S=C=NCC(c1ccccc1)c1ccccc1 [2,2-diphenylethyl ITC, 2,2-diphenylethyl isothiocyanate]
[1]; FIG. 3B-E
  rank as depletor of mutant p53 among ITCs studied: most potent
[1]
  depletion of mutant p53 (FIG. 3B-E): deplete mutant p53
[2]
  binding affinity for mutant (G245C) p53 DBD (free thiols, relative fluorescence): greater binding affinities
[3]
  induction of apoptosis vs DMSO: greater induction of apoptosis
[3]; p<0.05 compared with BITC
  rank as inducer of apoptosis: strongest inducer of apoptosis

## S=C=NCc1ccc(Cl)cc1 [4-chlorobenzyl ITC]
[2]
  binding affinity for mutant (G245C) p53 DBD (free thiols, relative fluorescence): greater binding affinities
